Measurements published in patent publication US20260315434A1, “USE OF GUAIACOL SESQUITERPENE LACTONE DERIVATIVES” (NANJING UNIVERSITY OF CHINESE MEDICINE, priority 2023, published 2026).

Assays:
[1] = test system: fibrosis-related factors (Acta2, Col1a1, Tgfb1) in liver tissue; test: CCl4-induced acute liver injury, liver fibrosis-related factor mRNA; assay type: in vivo, C57BL/6 mice; design: unit not given here
Protocol: They were acclimated for 7 days before use in experiments.
Mice were randomly assigned to groups. One group was arbitrarily designated as the normal group, while the remaining groups served as model group, Compound 1 group, Hydrochloride 20 group, Fumarate 21 group, and Silibinin group, with 6 mice per group. Except for the normal group receiving 10 mL olive oil/kg via injection, all other mice received 0.5 mL CCl4+9.5 mL olive oil/kg body weight via intraperitoneal injection, maintaining a CCl4 to olive oil ratio of 1:19. Starting from day 1 of modeling, Compound 1, Hydrochloride 20, and Fumarate 21 were administered orally for 3 consecutive days.
The blood was allowed to stand at room temperature for 2 hours, then centrifuged at 3000 rpm for 20 minutes. Serum was aspirated, aliquoted, and stored at −70° C. for future use. After blood collection, euthanize mice by cervical dislocation. Perform laparotomy to remove the liver. Rinse twice with pre-chilled PBS. Excise the left hepatic lobe tissue. […] Store remaining tissue at −70° C. for future use.
Q-PCR Analysis: Tissue total RNA extraction, cDNA synthesis, and PCR amplification methods are identical to Example 4. Additional primer information is as follows:
Data Statistics: All data are expressed as means f standard error of the mean (S.E.M.). Differences were analyzed for significance using analysis of variance (ANOVA). For groups showing significant differences in ANOVA, one-way ANOVA followed by Dunnett's test was performed to compare intergroup differences.

[2] = test system: renal injury markers (Kim-1, Ngal) in kidney tissue; test: Diabetic nephropathy, renal injury marker mRNA; assay type: in vivo, C57/BL6J mice; conditions: 8 weeks
Protocol: Experimental animals: C57/BL6J mice, male, 12 weeks old, purchased from GemPharmatech LLC. Production license number: SCXK(Su)2023-0009. […] Animals were acclimated for 7 days before use in experiments.
Administer streptozotocin (STZ, 50 mg/kg) via intraperitoneal injection for 5 consecutive days. After 72 hours, select mice with fasting blood glucose levels exceeding 16.7 mmol/L as model mice. […] Model mice were fed a high-fat diet (HFD) providing 60% of energy from fat for 8 weeks. After 8 weeks, gavage administration commenced.
Specimen Collection: One hour after the last drug administration, enucleate the eyeball to collect blood. Allow blood to stand at room temperature for 2 hours, then centrifuge at 3000 rpm for 20 minutes. Aspirate the serum, aliquot it, and store at −70° C. for future use. After blood collection, euthanize the mice by cervical dislocation. Open the abdominal cavity, remove the kidneys, and dissect away the perirenal fat and capsule. Store the tissue at −70° C. for future use.

[3] = test system: Hepa1-6 cells; test: Antitumor efficacy combined with anti-PD-L1 monoclonal antibody, Hepa1-6 xenograft; assay type: in vivo, C57BL/6 mice; conditions: for combination with anti-PD-L1 monoclonal antibody vs. single agents, Hepa1-6: 1 mg/kg/day i.p., 2 weeks, result in words
Protocol: Hepa1-6 cells were cultured and expanded in vitro. An appropriate number of cells in the logarithmic growth phase was resuspended in a mixture of serum-free DMEM medium and Matrigel (1:1). Under sterile conditions, prepare a cell suspension at 2.5×10^6 cells/100 μL. Using a syringe, inject 100 μL of the cell suspension subcutaneously into the left forelimb axilla of male C57BL/6 mice. […] Compounds 20 and 103 were administered via intraperitoneal injection daily, while anti-PD-L1 monoclonal antibody was administered intraperitoneally every three days for a total of two weeks. During the treatment period, mouse body weight and tumor diameter were measured daily. At the end of the experiment, mice were euthanized by cervical dislocation, and tumors were removed and weighed. Tumor volume (TV) was calculated using the formula: TV=½×a×b^2, where a represents the longest diameter of the tumor and b represents the shortest diameter.

[4] = test system: H22 cells; test: Antitumor efficacy combined with anti-PD-L1 monoclonal antibody, H22 xenograft; assay type: in vivo, Balb/c mice; conditions: 2 weeks; for combination with anti-PD-L1 monoclonal antibody vs. single agents, H22: 2.5 mg/kg/day i.p., result in words; for Tumor inhibition rate (%) / Tumor weight: dose 2.5 (head μmol/kg/day; text 2.5 mg/kg/day), i.p. daily, H22
Protocol: H22 cells were cultured and expanded in vitro. An appropriate number of cells in the logarithmic growth phase was resuspended in a mixture of serum-free RPMI 1640 medium and Matrigel (1:1). Under aseptic conditions, prepare a2×10^6/100 μL cell suspension. Using a syringe, inject 100 μL of the cell suspension subcutaneously into the left forelimb axilla of male Balb/c mice. […] Compounds 20 and 103 were administered daily via intraperitoneal injection, while anti-PD-L1 monoclonal antibody was administered every three days via intraperitoneal injection for a 2-week treatment period. During the treatment period, mouse body weight and tumor diameter were measured daily. At the end of the experiment, mice were euthanized by cervical dislocation, and tumors were removed and weighed. Tumor volume (TV) was calculated using the formula: TV=½×a×b^2, where a represents the longest diameter of the tumor and b represents the shortest diameter.

[5] = test system: inflammatory factors (TNF, IL-6, IL-1) in liver tissue; test: LPS-induced sepsis, hepatic inflammatory factor mRNA (Q-PCR); conditions: for Tnf mRNA expression, liver: LPS 8.92; for Il6 mRNA expression, liver: LPS 11.34; for Il1 mRNA expression, liver: LPS 11.52
From the text: They were acclimated for 7 days before experimentation.
The normal and model groups received equal volumes of solvent (0.5% CMC-Na) via oral gavage.
Specimen Collection: One hour after the final drug administration, mice were euthanized by cervical dislocation. The abdominal cavity was opened, and the lungs, liver, and kidneys were removed. These organs were rinsed twice with pre-chilled PBS. Tissue samples were excised from the mouse lungs, left hepatic lobe, and kidneys. […] Remaining tissues were stored at −70° C. for future use.
Accurately weigh 20 mg of kidney, lung, and liver tissue. Rinse with pre-chilled PBS solution, cut into small pieces using ophthalmic scissors, and place into a glass homogenizer. Add 1 mL of Trizol reagent and grind to prepare tissue homogenate. Transfer the homogenate to a RNAse-free 1.5 mL EP tube and lyse on ice for 10 min. Add 200 μL chloroform, vortex vigorously, and let stand on ice for 3-5 min. Centrifuge at 12,000 rpm and 4° C. for 15 min. Carefully transfer the supernatant to a new RNAse-free 1.5 mL EP tube. Add an equal volume of pre-chilled isopropanol, incubate on ice for 30 min, then centrifuge at 12,000 rpm and 4° C. for 10 min. Discard the supernatant. […] Subsequently, dissolve the pellet in 10 μL DEPC-treated water. Dilute 1 μL of the total RNA solution 100-fold and measure the OD values at 260 nm and 280 nm using a full-wavelength microplate reader.
Following the method described in the kit manual, subsequent experiments were conducted using a 20 μL reverse transcription reaction system:
Primers were designed based on the nucleotide sequence of the mouse in GenBank and synthesized.
Perform subsequent experiments using a 20 μL reaction system according to the kit instructions:
After adding the above reagents to micro reaction tubes, seal them with the cap and place them in the Q-PCR instrument. Set the parameters according to the following reaction conditions to perform the amplification experiment.
Record the threshold cycle (Ct) values for each group and perform calculation and analysis using the 2^−ΔΔCt method (setting the expression level of the reference gene Gapdh as 1 to correct the expression levels of the target genes).
Data Statistics: All data are presented as Means±S.E.M. Analysis of variance (ANOVA) was performed to assess the significance of differences. Groups showing significant differences in ANOVA were further compared using one-way ANOVA and Dunnett's test. A P-value <0.05 was considered statistically significant.

[6] = dose 1 (head μmol/kg/day; text 1 mg/kg/day), i.p. daily, two weeks, Hepa1-6

| Compound | Acta2 mRNA expression, liver ([1]; 1 mg/kg oral) | Col1a1 mRNA expression, liver ([1]; 1 mg/kg oral) | Tgfb1 mRNA expression, liver ([1]; 1 mg/kg oral) | Kim-1 mRNA expression, kidney ([2]; 1 mg/kg gavage) | Ngal mRNA expression, kidney ([2]; 1 mg/kg gavage) | Kim-1 mRNA expression, kidney ([2]; 10 mg/kg gavage) | Ngal mRNA expression, kidney ([2]; 10 mg/kg gavage) | combination with anti-PD-L1 monoclonal antibody vs. single agents, Hepa1-6 [3] | combination with anti-PD-L1 monoclonal antibody vs. single agents, H22 [4] | Tumor inhibition rate (%) [4] | Tumor weight [4] | Tnf mRNA expression, liver ([5]; 1 mg/kg oral) | Il6 mRNA expression, liver ([5]; 1 mg/kg oral) | Il1 mRNA expression, liver ([5]; 1 mg/kg oral) | further results |
| --- | --- | --- | --- | --- | --- | --- | --- | --- | --- | --- | --- | --- | --- | --- | --- |
| CN(C)C[C@@H]1C(=O)O[C@H]2[C@H]1CC[C@@]1(C)C[C@]13CC[C@@](C)(O)[C@H]23 [Compound 20] | 1.85 ± 0.77 | 1.16 ± 0.26 | 0.92 ± 0.21 | 1.68 ± 0.17 | 1.38 ± 0.17 | 0.64 ± 0.10 | 0.96 ± 0.13 | synergistic effect | synergistic effect | 48.67% | 0.64 ± 0.09 g | 5.71 ± 0.61 | 3.93 ± 0.90 | 3.07 ± 0.29 | tumor inhibition rate, combination ([3]; 1 mg/kg/d i.p. combined with anti-PD-L1 monoclonal antibody (5 mg/kg/d)): 96.99% |
| CN(C)C[C@@H]1C(=O)O[C@H]2[C@H]1CC[C@@]1(C)C[C@]13CC[C@@](C)(O)[C@H]23 [Compound 21] | 2.18 ± 0.42 | 1.26 ± 0.27 | 0.88 ± 0.16 | – | – | – | – | – | – | – | – | 7.12 ± 1.12 | 4.82 ± 0.69 | 4.22 ± 0.90 | Acta2 mRNA expression, liver ([1]; 0.1 mg/kg oral): 2.86 ± 0.26; Col1a1 mRNA expression, liver ([1]; 0.1 mg/kg oral): 1.83 ± 0.53; Tgfb1 mRNA expression, liver ([1]; 0.1 mg/kg oral): 1.08 ± 0.29; Tnf mRNA expression, liver ([5]; 0.1 mg/kg oral): 7.78 ± 1.68; Il6 mRNA expression, liver ([5]; 0.1 mg/kg oral): 8.96 ± 0.70; Il1 mRNA expression, liver ([5]; 0.1 mg/kg oral): 10.32 ± 1.45 |
| CC1=C2CC[C@@](C)(OC(=O)N3CCCC3)[C@@H]2[C@H]2OC(=O)[C@@H](CN3CCCC3)[C@@H]2CC1 [Compound 103] | – | – | – | 0.98 ± 0.41 | 2.34 ± 0.39 | 0.75 ± 0.24 | 2.08 ± 0.34 | synergistic effect | synergistic effect | 41.90% | 0.70 ± 0.08 g | – | – | – | Tumor inhibition rate (%) [3, 6]: 62.26%; Tumor weight [3, 6]: 0.16 ± 0.05 g |
